Reference: patent US20020077317A1, “Method of potentating the action of 2-methoxyoestradiol, statins and C-peptide of proinsulin” (priority 2000, published 2002)

Key:
delta-5-desaturase = delta-5-desaturase (Homo sapiens, UniProt O60427); test: delta-5-desaturase activity; format: biochemical
From the text: (§1) Essential fatty acids are precursors of eicosanoids and are important structural components of cell membranes. They also provide the substrates for the generation of lipid peroxidation products which have an inhibitory action on cell proliferation. Tumor cells are known to have low delta-6-desaturase activity, an enzyme necessary for the desaturation of dietary linoleic acid (LA, 18:2, n-6) and alpha-linolenic acid (ALA, 18:3, n-3) to their respective products. […] This selective tumoricidal action of fatty acids seems to be mediated by free radicals and lipid peroxides.

delta-6-desaturase = delta-6-desaturase (Homo sapiens, UniProt O95864); test: delta-6-desaturase activity; format: biochemical
From the text: as §1

[1] = system: SOD (superoxide dismutase); details: cited from earlier work
[2] = system: normal human skin fibroblasts; details: at 100 micro M concentration; cited from earlier work
solid tumors = details: cited from earlier work
endothelial cells = details: read-out: half-maximal inhibitory concentration (IC50); cited from earlier work
[3] = system: breast cancer cells, MCF-7; details: cited from earlier work
p53 protein = details: cited from earlier work
[4] = system: Chinese Hamster V79 cells; details: in culture; cited from earlier work
skin papilloma = skin papilloma in mice; format: in vivo; details: pure fatty acid or fatty acid rich oils
tumor cells = test: PUFA potentiation of anti-cancer drugs in tumor cells; format: cell-based; details: for cytotoxic action of doxorubicin, vincristine and cis-platinum: fatty acid added to anti-cancer drug
[5] = system: TNF resistant L-929 tumor cells; test: TNF resistant L-929 tumor cells in vitro; format: cell-based; details: for killing of TNF resistant L-929 tumor cells: in vitro; for sensitisation of TNF-resistant L-929 cells to TNF: prior treatment with fatty acid
[6] = system: tumor cells and normal cells; test: PUFAs on tumor cells and normal cells in vitro; format: cell-based; details: for killing of tumor cells versus normal cells: in vitro
From the text: (§2) Tumor cells are not only deficient in PUFAs but also have low rate(s) of lipid peroxidation and low amounts of superoxide dismutase (SOD), and contain relatively large amounts of antioxidants such as vitamin E. It is also believed that low rates of lipid peroxidation and consequent low amounts of lipid peroxides in the cells can contribute to an increase in the mitotic process which ultimately leads to an increase in cell proliferation. Thus, a deficiency of PUFAs, high amounts of antioxidants and the presence of low amounts of lipid peroxides in the tumor cells can contribute to the growth of tumor cells.
as §1

ascitic tumor cells = ascitic tumor cells in the peritoneum; format: in vivo; details: experimental animals; pure fatty acid or fatty acid rich oils
hepatoma = hepatoma in rats; format: in vivo; details: pure fatty acid or fatty acid rich oils
[7] = system: normal and tumor cells grown together; test: mixed culture of normal and tumor cells; format: cell-based
From the text: as §2

KB-Ch^R-8-5 = test: vincristine resistant KB-ChR-8-5 tumor cells; format: cell-based
bone marrow cells = test: side effects of anti-cancer agents on mouse bone marrow cells; format: in vivo; details: mice
From the text: […], it is desirable that PUFAs should be delivered to the patients in such a manner that they are easily available to the tumor cells and are delivered selectively to the tumor cells.

[8] = system: primary and metastatic tumors; details: experimental animals; cited from earlier work
endothelial cell = details: cited from earlier work
[9] = system: bovine capillary endothelial cells; details: in vitro; cited from earlier work
[10] = system: proliferating endothelial cells; details: cited from earlier work
[11] = system: subcutaneous hemangioendothelioma; details: mice with hemangioendothelioma and disseminated intravascular coagulopathy; cited from earlier work
[12] = system: free radical generation and lipid peroxidation; details: cited from earlier work
[13] = proliferating endothelial cells

delta-5-desaturase, sequence (O60427 whole entry, species assumed): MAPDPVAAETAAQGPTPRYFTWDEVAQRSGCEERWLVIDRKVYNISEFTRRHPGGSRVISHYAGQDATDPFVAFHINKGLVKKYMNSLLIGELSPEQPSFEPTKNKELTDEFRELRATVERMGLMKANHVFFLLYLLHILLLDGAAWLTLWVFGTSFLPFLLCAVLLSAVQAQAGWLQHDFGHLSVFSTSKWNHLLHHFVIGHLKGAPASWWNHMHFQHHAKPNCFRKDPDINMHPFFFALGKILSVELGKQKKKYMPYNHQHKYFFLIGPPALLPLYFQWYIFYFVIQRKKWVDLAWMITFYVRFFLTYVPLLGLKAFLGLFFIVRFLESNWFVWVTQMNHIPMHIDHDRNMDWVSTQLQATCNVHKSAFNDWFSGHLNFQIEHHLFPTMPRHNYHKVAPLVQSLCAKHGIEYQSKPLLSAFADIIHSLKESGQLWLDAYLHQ
delta-6-desaturase, sequence (O95864 whole entry, species assumed): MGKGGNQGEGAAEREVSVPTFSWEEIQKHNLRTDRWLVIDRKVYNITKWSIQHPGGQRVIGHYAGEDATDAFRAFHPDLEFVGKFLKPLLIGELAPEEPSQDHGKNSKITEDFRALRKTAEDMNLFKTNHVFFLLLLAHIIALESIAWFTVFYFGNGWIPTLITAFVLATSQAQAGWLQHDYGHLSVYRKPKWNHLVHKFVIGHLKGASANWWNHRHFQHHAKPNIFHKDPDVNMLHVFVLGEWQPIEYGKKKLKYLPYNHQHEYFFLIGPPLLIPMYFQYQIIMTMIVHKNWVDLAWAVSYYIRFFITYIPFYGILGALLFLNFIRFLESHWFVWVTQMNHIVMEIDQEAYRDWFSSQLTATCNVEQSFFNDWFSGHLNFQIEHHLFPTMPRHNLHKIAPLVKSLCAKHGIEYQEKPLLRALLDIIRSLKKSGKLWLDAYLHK

## CC(=O)Nc1ccc2c(c1)Cc1ccccc1-2 [2-AAF, 2-acetylaminofluorine]
delta-5-desaturase
  activity of delta-5-desaturase: can suppress the activity
delta-6-desaturase
  activity of delta-6-desaturase: can suppress the activity

## COc1cc2c(cc1O)CC[C@@H]1[C@@H]2CC[C@]2(C)[C@@H](O)CC[C@@H]12 [2-ME, 2-methoxyoestradiol]
[1]
  binding to SOD: able to bind to SOD
[2]
  effect on normal human skin fibroblasts: no effect
Solid tumors; in vivo
  general toxicity: not associated with general toxicity
Solid tumors; oral administration, mice
  capillary formation in and growth of solid tumors: inhibit capillary formation in solid tumors and reduce their growth
Endothelial cells
  IC50: 150 nM
[3]
  action on MCF-7 cells: cytotoxic action
p53 protein
  accumulation of p53 protein: induce the accumulation of p53 protein
[4]
  growth of Chinese Hamster V79 cells: suppres the growth

## CCCCC/C=C\C/C=C\C/C=C\C/C=C\CCCC(=O)O [AA, arachidonic acid]
Skin papilloma
  growth of skin papilloma: inhibit the growth
Tumor cells
  cellular uptake of anti-cancer drugs by tumor cells: enhance the cellular uptake
  cytotoxic action of doxorubicin, vincristine and cis-platinum: can be augmented
[5]
  killing of TNF resistant L-929 tumor cells: able to kill
  sensitisation of TNF-resistant L-929 cells to TNF: rendered TNF sensitive
[6]
  tumor cell proliferation: decrease tumor cell proliferation
  killing of tumor cells versus normal cells: only tumor cells are killed
Ascitic tumor cells
  growth of ascitic tumor cells in the peritoneum: inhibit the growth
hepatoma
  formation and growth of hepatoma: inhibit the growth
[7]
  selective tumoricidal action in mixed culture: effective to some extent
KB-Ch^R-8-5
  sensitisation of vincristine resistant cells to vincristine: made sensitive to the cytotoxic action of vincristine

## CC/C=C\C/C=C\C/C=C\CCCCCCCC(=O)O [ALA, alpha-linolenic acid]
[6]
  killing of tumor cells versus normal cells: only tumor cells are killed

## CCN(CC)N=O [DEN, diethylnitrosamine]
delta-5-desaturase
  activity of delta-5-desaturase: can suppress the activity
delta-6-desaturase
  activity of delta-6-desaturase: can suppress the activity

## CCCCC/C=C\C/C=C\C/C=C\CCCCCCC(=O)O [DGLA, dihomo-GLA]
Skin papilloma
  growth of skin papilloma: inhibit the growth
Tumor cells
  cellular uptake of anti-cancer drugs by tumor cells: enhance the cellular uptake
  cytotoxic action of doxorubicin, vincristine and cis-platinum: can be augmented
[5]
  killing of TNF resistant L-929 tumor cells: able to kill
  sensitisation of TNF-resistant L-929 cells to TNF: rendered TNF sensitive
[6]
  tumor cell proliferation: decrease tumor cell proliferation
  killing of tumor cells versus normal cells: only tumor cells are killed
Bone marrow cells
  side effects of gamma-radiation and cis-platinum to bone marrow cells: prevent or ameliorate the side effects
Ascitic tumor cells
  growth of ascitic tumor cells in the peritoneum: inhibit the growth
hepatoma
  formation and growth of hepatoma: inhibit the growth
KB-Ch^R-8-5
  sensitisation of vincristine resistant cells to vincristine: made sensitive to the cytotoxic action of vincristine

## CC/C=C\C/C=C\C/C=C\C/C=C\C/C=C\C/C=C\CCC(=O)O [DHA, docosahexaenoic acid]
Tumor cells
  cytotoxic action of doxorubicin, vincristine and cis-platinum: can be augmented

## CC/C=C\C/C=C\C/C=C\C/C=C\C/C=C\CCCC(=O)O [EPA, eicosapentaenoic acid]
Tumor cells
  cytotoxic action of doxorubicin, vincristine and cis-platinum: can be augmented
Bone marrow cells
  side effects of gamma-radiation and cis-platinum to bone marrow cells: prevent or ameliorate the side effects

## CCCCC/C=C\C/C=C\C/C=C\CCCCC(=O)O [GLA, gamma-linolenic acid]
Tumor cells
  cellular uptake of anti-cancer drugs by tumor cells: enhance the cellular uptake
  cytotoxic action of doxorubicin, vincristine and cis-platinum: can be augmented
[5]
  killing of TNF resistant L-929 tumor cells: able to kill
[6]
  tumor cell proliferation: decrease tumor cell proliferation
  killing of tumor cells versus normal cells: only tumor cells are killed
Bone marrow cells
  side effects of gamma-radiation and cis-platinum to bone marrow cells: prevent or ameliorate the side effects
Ascitic tumor cells
  growth of ascitic tumor cells in the peritoneum: inhibit the growth
hepatoma
  formation and growth of hepatoma: inhibit the growth

## CCCCC/C=C\C/C=C\CCCCCCCC(=O)O [LA, linoleic acid]
[6]
  killing of tumor cells versus normal cells: only tumor cells are killed

## CC\C=C/C=C/C=C/C=C\CCCCCCCC(=O)O [cis-parinaric acid]
[6]
  killing of tumor cells versus normal cells: only tumor cells are killed

## Endostatin®
[8]
  primary and metastatic tumors: dramatic reduction of primary and metastatic tumors
Endothelial cell
  endothelial cell proliferation and angiogenesis: specifically inhibit endothelial cell proliferation and angiogenesis

## angiostatin®
[9]
  proliferation/growth of bovine capillary endothelial cells: inhibit the growth of bovine capillary endothelial cells
[10]
  cell cycle progression: did not alter cell cycle progression significantly
[10]; [13]
  adhesion activity: enhanced the adhesion activity
  change in expression of E-selectin: 4 to 5 fold
[11]
  size of the tumor: significant reduction in the size of the tumor
  survival: increased survival

## superoxide dismutase
[12]
  free radical generation and lipid peroxidation generated by GLA, EPA and DHA: completely inhibit free radical generation and lipid peroxidation

## vitamin E
[12]
  free radical generation and lipid peroxidation generated by GLA, EPA and DHA: completely inhibit free radical generation and lipid peroxidation
